≈ marks a conversion by molar mass, not a printed value. Read-outs that look alike come from different tables or passages of the source.
What was measured:
[1] = tested on: C. difficile ATCC 700057; experiment: Primary MIC assay, C. difficile ATCC 700057; assay type: cell-based, Clostridioides difficile; conditions: Table 1; for MIC: Clostridioides difficile, ATCC700057, read-out: MIC C. difficile ATCC 700057
Protocol: (§1) The N-arytriazole and N-naphthyltriazole peptidomimetics were subjected to antimicrobial screening. […] Vancomycin, colistin, fluconazole, and tamoxifen were used as positive controls (see Table 1 for details).
(§2) Primary screening (Gram-positive bacteria). Primary MIC assays were performed as described by the Clinical and Laboratory Standards Institute for aerobic and anaerobic bacteria. MIC values for vancomycin were within acceptable QC ranges.

[2] = tested on: C. difficile 132 (RT027); experiment: Primary MIC assay, C. difficile 132 (RT027); assay type: cell-based, Clostridioides difficile; conditions: Table 1; for MIC: Clostridioides difficile, read-out: MIC C. difficile 132 (RT027)
Protocol: as §1, §2

[3] = tested on: S. aureus ATCC 29213; experiment: Primary MIC assay, S. aureus ATCC 29213; assay type: cell-based; conditions: Staphylococcus aureus, ATCC29213; Table 1; read-out: MIC S. aureus ATCC 29213
Protocol: as §1, §2

[4] = tested on: S. aureus NCTC 10442; experiment: Primary MIC assay, S. aureus NCTC 10442 (MRSA); assay type: cell-based; conditions: Staphylococcus aureus, MRSA
Protocol: as §1, §2

[5] = tested on: E. faecalis ATCC 29212; experiment: Primary MIC assay, E. faecalis ATCC 29212; assay type: cell-based, Enterococcus faecalis; conditions: Enterococcus faecalis, ATCC29212; Table 1; read-out: MIC E. faecalis ATCC 29212
Protocol: as §1, §2

[6] = tested on: S. pneumoniae ATCC 49619; experiment: Primary MIC assay, S. pneumoniae ATCC 49619; assay type: cell-based, Streptococcus pneumoniae; conditions: Streptococcus pneumoniae, ATCC49619; Table 1; read-out: MIC S. pneumoniae ATCC 49619
Protocol: as §1, §2

[7] = tested on: E. coli ATCC 25922; experiment: Primary MIC assay, E. coli ATCC 25922; assay type: cell-based; conditions: Escherichia coli, ATCC25922; Table 1; read-out: MIC E. coli ATCC 25922
[8] = Cytotoxicity (CC50) assay by CO-ADD; assay type: cell-based, human; conditions: human, HEK293 cells (ATCC CRL-1573); Table 1; cytotoxicity on HEK293 cells, tested at ≤32 µg/mL
Text: as §1
(§3) Secondary screening (MRSA and Gram-negative bacteria) and cytotoxicity assay–performed by the Community for Open Antimicrobial Drug Discovery (CO-ADD). Samples were provided to CO-ADD [29] for antimicrobial screening by whole cell growth inhibition assays.
Cytotoxicity Assay. These were performed as described previously.

[9] = tested on: human erythrocytes; experiment: Hemolysis assay, HC50 determination; assay type: cell-based
Protocol: Hemolysis assay (human erythrocytes)–HC50 determination. These were performed as described previously.

[10] = tested on: S. aureus ATCC 43300; experiment: CO-ADD MIC assay, S. aureus ATCC 43300 (MRSA); assay type: cell-based; conditions: Staphylococcus aureus, MRSA, read-out: MIC S. aureus ATCC 43300
Text: as §1, §3
(§4) Bacterial Inhibition–MIC Assay. These were performed as described previously.

[11] = tested on: P. aeruginosa ATCC 27853; experiment: CO-ADD MIC assay, P. aeruginosa ATCC 27853; assay type: cell-based; conditions: Pseudomonas aeruginosa, ATCC27853, Table S1
Text: as §1, §3, §4

[12] = tested on: K. pneumoniae ATCC 700603; experiment: CO-ADD MIC assay, K. pneumoniae ATCC 700603; assay type: cell-based; conditions: Klebsiella pneumoniae, ATCC700603, Table S1, multi-drug resistant
Text: as §1, §3, §4

[13] = tested on: A. baumannii ATCC 19606; experiment: CO-ADD MIC assay, A. baumannii ATCC 19606; assay type: cell-based; conditions: Acinetobacter baumannii, ATCC19606, Table S1
Text: as §1, §3, §4

[14] = tested on: E. coli ATCC 25922; experiment: CO-ADD MIC assay, E. coli ATCC 25922; assay type: cell-based; conditions: Escherichia coli, ATCC25922, Table S1
Text: as §1, §3, §4

[15] = tested on: C. albicans ATCC 90028; experiment: CO-ADD MIC assay, C. albicans ATCC 90028; assay type: cell-based; conditions: Candida albicans, ATCC90028, Table S1
Text: as §1, §3

[16] = tested on: Cryptococcus neoformans var. grubii ATCC 208821; experiment: CO-ADD MIC assay, C. neoformans var. grubii ATCC 208821; assay type: cell-based; conditions: for MIC: Cryptococcus neoformans, ATCC208821, Table S1; for MIC C. neoformans var. grubii ATCC 208821: Table S1
Text: as §1, §3

[17] = Comparative solubility assay (solubility ratio relative to compound 1); assay type: physicochemical
Text: While the selectivity ratio could be more substantial, this is acceptable for the future development of these gastrointestinal focused compounds. […] These outcomes were confirmed with no issues during the mouse model trials with sufficient solubility in the dosage regimen. Variations on the triazole and O-naphthyl substituents could be made in future studies with the view of enhancing antibacterial activity against C. difficile.

[18] = tested on: C. difficile; experiment: MIC against C. difficile, strain not given; assay type: cell-based; conditions: Clostridioides difficile, strains of Table 1
Protocol: as §2

[19] = tested on: C. difficile strain M7404 (RT027); experiment: In vivo murine model of CDI treatment; parameters: species or system C57BL/6J mice
Protocol: Disease Treatment Model. These experiments were performed as previously described. Mice were humanely killed at the onset of severe disease or at the end of the experiment (day 4), as previously described.
Statistical Analysis. Statistical analysis was performed using Prism 7 (GraphPad Software). The Kaplan–Meier survival curves were assessed using a log-rank (Mantel–Cox) test. Weight loss, spore shedding, fecal consistency, and physiological appearance data were analyzed by one-way ANOVA with a post hoc Tukey’s multiple comparison test. Differences in data values were considered significant at a p value of <0.05.
Figure 3 C57BL/6J mice (n = 5 per group) were infected with 10^5 spores of C. difficile strain M7404 (RT027). Six hours post-infection and then every 12 h thereafter, mice were administered either 10% DMSO (blue) or 2.5 mg (100 mg/kg in 10% DMSO) of compound 40 (red) by oral gavage. Mice were monitored daily for survival (a) and weight loss relative to day 0, which was the day of infection (b). Fecal spore load at 1-day post-infection was determined by plating (c). Data are presented as CFU/gram feces, with each point representing a single mouse. Mouse cages were scored on day 1 post-infection for appearance (d) and mice were individually assessed for fecal consistency (e) and physiological appearance (f). Data represent the mean ±S.E.M. and statistical significance was assessed using a log-rank (Mantel–Cox) test or one-way ANOVA with a post hoc Tukey’s multiple comparison test. […]
The murine model of CDI was conducted with project collaborators at Monash University. The murine model of CDI was performed by pretreating cohorts of five mice that had been earlier infected via oral gavage with hypervirulent M7404 C. difficile spores. The infection was allowed to develop for 12 h before the trial drug was administered every 12 h for five days. The mice received a single dosage of 2.5 mg of […] (i.e.
100 mg/kg for an average 25 g mouse) administered in a solvent mixture of 10% DMSO and H2O at each 12 h dosing period. The mice body weight was checked every day. If a mouse lost 10% of its body weight in the first 24 h, then the infection was developing, and the mouse was separated from the trial and culled for ethical reasons. The whole survival rate for every drug cohort was utilized to measure effectiveness of that drug.
Other physiological parameters such as cage appearance scores and faecal consistency scores were additional measures for the efficacy of the drug in this murine trial. The experimental data of the in vivo CDI model can be found in Section 3.3.3 and the experimental procedures can be found in Section 6.4.3.
Compound 40 was selected for a murine model of CDI study because of its better antimicrobial potency against C. difficile and its better water solubility profile (Section 3.2.7). Compound 40 was prepared on a larger scale i.e. nearly 300 mg for the purpose of in vivo mouse model of CDI at Monash University. […]
In the secondary CDI mouse model trial, the solution (10% v/v DMSO/H2O) of the compound 40 was ad-ministered to mice by oral gavage.

[20] = MRSA / NCTC 10442 / NCTC 104422, Table 2, read-out: MIC S. aureus NCTC 104422
[21] = Table 1, read-out: MIC S. aureus NCTC 10442
[22] = Table 1, lysis of human erythrocytes
[23] = Table 2, footnote says lysis of sheep erythrocytes
[24] = Table S1, footnote says lysis of sheep erythrocytes

Row | Structure (SMILES) | MIC [1] | MIC C. difficile ATCC 700057 [1] | MIC [2] | MIC C. difficile 132 (RT027) [2] | MIC [3] | MIC [4, 20] | MIC [4, 21] | MIC [5] | MIC [6] | MIC [7] | CC50 [8] | HC50 [9, 22] | HC50 [9, 24] | MIC ([10]; Table S1, CO-ADD) | MIC [11] | MIC [12] | MIC [13] | MIC [14] | MIC [15] | MIC [16] | also measured
1 | CC(C)CCc1cn(-c2c(OCC(=O)N[C@H](CCCCN)C(=O)N[C@H](CCCNC(=N)N)Cn3cc(Cc4ccccc4)nn3)ccc3ccccc23)nn1.Cl.Cl [Compound 42] | 8 µg/mL | 8 µg/mL | 8 µg/mL | 8 µg/mL | 8 µg/mL | 8 µg/mL | 8 µg/mL | 8 µg/mL | 8 µg/mL | 32 µg/mL | 32 µg/mL | 32 µg/mL | 32 µg/mL | 8 µg/mL | 32 µg/mL | > 32 µg/mL | 32 µg/mL | 32 µg/mL | > 32 µg/mL | 4 to 8 µg/mL | HC50 [9, 23]: 32 µg/mL; MIC ([10]; Table 2): 8 µg/mL; MIC C. neoformans var. grubii ATCC 208821 [16]: 8 µg/mL; relative solubility ratio (relative to compound 1) [17]: 4; MIC [18]: 8 µg/mL
2 | CC(C)CCc1cn(-c2c(OCC(=O)N[C@H](CCCCN)C(=O)N[C@H](CCCNC(=N)N)Cn3cc(C4CCCCC4)nn3)ccc3ccccc23)nn1.Cl.Cl [Compound 40, (R)-6-Amino-N-((R)-1-(4-cyclohexyl-1H-1,2,3-triazol-1-yl)-5-guanidinopentan-2-yl)-2-(2-((1-(4-isopentyl-1H-1,2,3-triazol-1-yl)naphthalen-2-yl)oxy)acetamido)hexanamide dihydrochloride] | 8 µg/mL | 8 µg/mL | 8 µg/mL | 8 µg/mL | 16 µg/mL | 16 µg/mL | 16 µg/mL | 32 µg/mL | 16 µg/mL | 64 µg/mL | 32 µg/mL | 32 µg/mL | 32 µg/mL | 8 µg/mL | 32 µg/mL | > 32 µg/mL | 32 µg/mL | 32 µg/mL | > 32 µg/mL | 4 to 8 µg/mL | HC50 [9, 23]: 32 µg/mL; MIC ([10]; Table 2): 8 µg/mL; MIC C. neoformans var. grubii ATCC 208821 [16]: 4 µg/mL; disease onset compared to mice treated with DMSO ([19]; 100 mg/kg oral gavage): delayed disease onset; effect on spore numbers shed in the feces ([19]; 1-day post-infection): no effect; greater survival compared with mice treated with DMSO ([19]; day 1 post-infection): 40%; individual fecal score vs DMSO group ([19]; day 1 post-infection): no significant difference; overall cage appearance score compared to DMSO ([19]; day 1 post-infection): lower; physiological appearance score vs DMSO group ([19]; day 1 post-infection): no significant difference; survival outcome ([19]; day 2): succumbed to infection by day 2; survival observed after 24 h ([19]; mice, 100 mg/kg in 10% DMSO by oral gavage every 12 h, DMSO control 40%): 80%; effect on mouse weight ([19]; weight loss relative to day 0): no effect; relative solubility ratio (relative to compound 1) [17]: 5; MIC [18]: 8 µg/mL
3 | CC(C)CCc1cnnn1-c1ccccc1OCC(=O)N[C@H](CCCCN)C(=O)N[C@H](CCCNC(=N)N)Cn1cc(CC2CCCCC2)nn1 [Compound 38] | 128 µg/mL (≈ 181 µM) |  | > 128 µg/mL |  | 128 µg/mL (≈ 181 µM) |  | 128 µg/mL (≈ 181 µM) | > 128 µg/mL | 128 µg/mL (≈ 181 µM) | > 128 µg/mL | 32 µg/mL (≈ 45.3 µM) | 32 µg/mL | 32 µg/mL | 32 µg/mL (≈ 45.3 µM) | > 32 µg/mL | > 32 µg/mL | > 32 µg/mL | > 32 µg/mL | > 32 µg/mL | 16 µg/mL (≈ 22.6 µM) | 
4 | CC(C)CCc1cn(-c2ccccc2OCC(=O)N[C@H](CCCNC(=N)N)Cn2cc(-c3ccc(F)cc3)nn2)nn1.Cl [Compound 12] | 32 µg/mL |  | 64 µg/mL |  | 32 µg/mL |  | 32 µg/mL | 32 µg/mL | 16 µg/mL | 128 µg/mL | > 32 µg/mL | >32 µg/mL | > 32 µg/mL | 32 µg/mL | > 32 µg/mL | > 32 µg/mL | > 32 µg/mL | > 32 µg/mL | > 32 µg/mL | 32 µg/mL | 

— PMC8388771, “Cationic Peptidomimetic Amphiphiles Having a N-Aryl- or N-Naphthyl-1,2,3-Triazole Core Structure Targeting Clostridioides (Clostridium) difficile: Synthesis, Antibacterial Evaluation, and an In Vivo C. difficile Infection Model” (Antibiotics, 2021)
